Test results as given in ChEMBL document CHEMBL4190185 (Medchemcomm, 2016).
Calls of active or inactive are those of the source. The rule behind the calls is not given here.

Key:
[1] = target: Estrogen receptor beta (Mus musculus) (UniProt O08537); test: Activation of ERbeta in mouse calvarial osteoblasts assessed as induction of osteoblast differentiation by measuring increase in ALP activity at 1 pM using PNPP as substrate after 48 hrs by colorimetric method
Calvarial osteoblast [2] = test: Cytotoxicity against mouse calvarial osteoblasts at 0.000001 to 1 uM after 48 hrs by MTT assay; format: cell-based
[3] = target: Estrogen receptor beta (Mus musculus) (UniProt O08537); test: Activation of ERbeta in mouse calvarial osteoblasts assessed as induction of mineralization by measuring increase in calcium nodules at 1 pM supplemented with fresh medium containing compounds every 48 hrs for 18 days measured on day 18 by alizarin red-S staining based colorimetric method relative to control
Calvarial osteoblast [4] = test: Induction of osteoblast differentiation in mouse calvarial osteoblasts assessed as increase in BMP2 mRNA expression at 1 to 100 pM after 48 hrs by SYBR green1 staining based RT-qPCR analysis; format: functional, cell-based
Calvarial osteoblast [5] = test: Induction of osteoblast differentiation in mouse calvarial osteoblasts assessed as increase in RUNX2 mRNA expression at 1 to 100 pM after 48 hrs by SYBR green1 staining based RT-qPCR analysis; format: functional, cell-based
Calvarial osteoblast [6] = test: Induction of osteoblast differentiation in mouse calvarial osteoblasts assessed as increase in osterix mRNA expression at 1 to 100 pM after 48 hrs by SYBR green1 staining based RT-qPCR analysis; format: functional, cell-based
[7] = target: T1, Estrogen receptor (Mus musculus) (UniProt P19785); test: Up regulation of ERalpha expression in mouse calvarial osteoblasts at 1 to 100 pM after 48 hrs by Western blot analysis
T1 sequence (whole entry): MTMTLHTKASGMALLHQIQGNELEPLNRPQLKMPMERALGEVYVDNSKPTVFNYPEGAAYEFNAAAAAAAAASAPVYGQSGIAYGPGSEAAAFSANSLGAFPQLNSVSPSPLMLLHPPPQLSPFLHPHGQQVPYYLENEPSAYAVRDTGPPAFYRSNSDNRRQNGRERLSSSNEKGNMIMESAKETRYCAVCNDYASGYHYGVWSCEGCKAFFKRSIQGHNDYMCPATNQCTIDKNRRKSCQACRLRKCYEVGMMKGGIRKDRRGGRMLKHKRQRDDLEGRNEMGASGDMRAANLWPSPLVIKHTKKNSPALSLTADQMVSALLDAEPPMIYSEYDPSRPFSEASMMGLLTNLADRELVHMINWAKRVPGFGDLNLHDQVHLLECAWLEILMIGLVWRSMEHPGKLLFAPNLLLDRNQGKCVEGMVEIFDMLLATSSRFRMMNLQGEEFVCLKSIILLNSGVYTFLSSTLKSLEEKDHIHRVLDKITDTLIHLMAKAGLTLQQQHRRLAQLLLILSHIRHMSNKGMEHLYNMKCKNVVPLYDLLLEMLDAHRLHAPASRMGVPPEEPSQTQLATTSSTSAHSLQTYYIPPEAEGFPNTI

[8] = target: Estrogen receptor beta (Mus musculus) (UniProt O08537); test: Up regulation of ERbeta expression in mouse calvarial osteoblasts at 1 to 100 pM after 48 hrs by Western blot analysis

Estrogen receptor beta (Mus musculus), sequence (O08537 whole entry): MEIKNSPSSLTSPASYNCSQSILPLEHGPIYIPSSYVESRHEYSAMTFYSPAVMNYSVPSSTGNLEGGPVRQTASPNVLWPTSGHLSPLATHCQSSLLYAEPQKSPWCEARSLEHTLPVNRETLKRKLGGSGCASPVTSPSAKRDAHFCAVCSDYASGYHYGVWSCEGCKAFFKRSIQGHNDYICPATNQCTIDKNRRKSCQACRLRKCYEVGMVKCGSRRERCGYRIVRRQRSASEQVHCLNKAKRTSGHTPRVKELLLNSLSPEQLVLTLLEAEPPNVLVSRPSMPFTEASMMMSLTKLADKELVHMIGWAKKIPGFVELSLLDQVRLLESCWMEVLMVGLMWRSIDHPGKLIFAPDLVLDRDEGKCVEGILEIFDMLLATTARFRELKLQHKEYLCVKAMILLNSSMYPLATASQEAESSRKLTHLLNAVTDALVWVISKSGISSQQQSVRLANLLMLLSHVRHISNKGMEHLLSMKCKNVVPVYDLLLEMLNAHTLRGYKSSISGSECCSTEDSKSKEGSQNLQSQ

Activity [1]	Activity [3]	Activity [7]	Activity [8]	SMILES	Activity (Calvarial osteoblast [2])	Activity (Calvarial osteoblast [4])	Activity (Calvarial osteoblast [5])	Activity (Calvarial osteoblast [6])
Active	–	–	–	CCOC(=O)CCCCCOc1ccc2c(c1)OCC(c1ccc(OC)cc1)C2 (centres undefined)	Non-Toxic	–	–	–
Active	–	–	–	COc1ccc(C2COc3cc(OCCCCCC(C)(C)O)ccc3C2)cc1 (centres undefined)	Non-Toxic	–	–	–
Active	–	–	–	CCC(O)(CC)CCCCOc1ccc2c(c1)OCC(c1ccc(OC)cc1)C2 (centres undefined)	Non-Toxic	–	–	–
Active	20%	Active	Active	COc1ccc(C2COc3cc(OCCCCC(C)(C)O)ccc3C2)cc1 (centres undefined)	Non-Toxic	Active	Active	Active
